This passage reports IC50 results from patent publication US9328093B2, “Selective inhibitors of ubiquitin specific protease 7, the pharmaceutical compositions thereof and their therapeutic applications” (HYBRIGENICS SA, priority 2010, dated 2016).

The target of this experiment is T1, USP7 (Homo sapiens, UniProt Q93009).
T1 construct: Full-length wild-type human USP7 and its catalytic mutant (cysteine 223 replaced by alanine, C223A) were produced as N-terminally His-tagged fusions; His (N); made in house; host or cells: Spodoptera frugiperda Sf9 (or High Five) insect cells, baculovirus pFastBac-HT-B
As to the kind of experiment: USP7 activity assay (Ub-AMC substrate). The class given is biochemical. Particulars: Ub-AMC 300 nM, USP7 100 pM, 30 min pre-incubation. The text has this:
The cDNA encoding USP7 was obtained by PCR amplification from placenta mRNA. USP7 cDNA was subcloned by PCR into a baculovirus expression vector (pFastBac-HT; Invitrogen). Full-length wild-type human USP7 and its catalytic mutant (cysteine 223 replaced by alanine, C223A) were produced as N-terminally His-tagged fusions in Spodoptera frugiperda cells (Sf9, Invitrogen), using the Bac-to-Bac Baculovirus system from Invitrogen according to the manufacturer's instructions. pFastBac-HT-B-USP7 was used to transform DH10bac cells (Invitrogen), and blue/white selection was carried out on X-gal/IPTG agar plates. Bacmid DNA was prepared by an alkaline lysis procedure. The integrity of the bacmid minipreps and their orientation were checked by PCR, using generic and specific primers. Sf9 insect cells were cultured in InsectXpress medium (Cambrex) at 27° C. and transfected with the corresponding bacmid, using GeneShuttle 40 (Q-BIOgen). Viruses were recovered in the supernatant 72 h after transfection. Viruses were amplified by infecting insect cells (Sf9 or High Five cells; invitrogen) in 50 ml InsectXpress medium in a 150 cm^2 cell culture flask with 500 μl of the supernatant from transfected Sf9 cells. Following the second round of amplification, infected cells were recovered by rapid SDS lysis, boiled for 5 min at 100° C., sonicated briefly and centrifuged for 20 min at 14,000 g. Expression levels in infected Sf9 cells were compared with those in uninfected cells. Fusion proteins were then allowed to bind to TALON beads (BD Biosciences, TALON metal affinity resin) for 30 min at 4° C. with gentle rocking. Beads were extensively washed (50 mM sodium phosphate buffer pH 7.0, 500 mM NaCl, 10 mM Imidazole, 0.5% Triton X-100 and 10% glycerol) and bound proteins were eluted in wash buffer supplemented with 250 mM Imidazole (Sigma). Eluted fractions were resolved on 4-12% NuPAGE gels (Novex, Invitrogen). Fractions containing high concentrations of purified proteins (purity >95%) were dialyzed (20 mM Tris HCl pH 7.6, 200 mM NaCl, 1 mM DTT, 1 mM EDTA and 10% glycerol) were aliquoted and snap frozen in liquid nitrogen before storage at −80° C.
USP7 was diluted in USP buffer (50 mM Tris HCl; 0.5 mM EDTA; 5 mM DTT; 0.01% Triton X-100; Bovine Serum Albumin 0.05 mg·ml^−1 pH7.6). Compounds stocks (10 mM) were stored at −20° C. in DMSO. Compounds were tested at different concentrations: from 200 μM to 91 nM.
Reactions were performed as duplicates in Black 384 well plates (small volumes microplates; Greiner; 10 μl final reaction volume). The substrate concentration for USP7 was 300 nM Ub-AMC (Chem. Biol., 2003, 10, p. 837-846) (Boston Biochem). The concentrations of the enzyme (USP7) in specificity assays was 100 pM. The concentrations were determined in order to perform specificity assays under initial velocities at fixed substrate concentration. Compounds were pre-incubated with enzymes for 30 minutes at 25° C. Reactions were initiated by addition of substrate to the plates containing the enzymes (+/− compounds) diluted in assay buffer. Reactions were incubated for 60 minutes at 37° C. Reactions were stopped by adding acetic acid (100 mM final). Readings were performed on a Pherastar Fluorescent Reader (BMG). λ
Emission 380 nm; λ Excitation=460 nm. Data (mean values +/− standard deviation) were analyzed as % of control (no compound) and plotted as percentage versus the Log of the compound concentration using GraphPad (Prism). Data were fitted to a sigmoidal model (variable slope).

Molecules are shown by their SMILES. pIC50: −log10 of the molar value.

By pIC50 is commonly meant the IC50 on a negative log10 scale, so that one unit is a factor of ten. In the case of `CC1CCCCN1CCCNC(=O)c1ccc2c(Cl)c3c(nc2c1)CCCC3` (stereo not drawn) [Example 20, 9-chloro-N-(3-(2-methylpiperidin-1-yl)propyl)-516,7,8-tetrahydroacridine-3-carboxamide], the pIC50 was 4.34. The same measure for `O=C(NCC1CCNCC1)c1ccc2c(Cl)c3c(nc2c1)CCCC3` [Example 24, 9-chloro-N-((piperidin-4-yl)methyl)-5,6,7,8-tetrahydroacridine-3-carboxamide]: 4.34; for `CN(C)c1ccc(CN2CCC(CNC(=O)c3ccc4c(Cl)c5c(nc4c3)CCCC5)CC2)cc1` [Example 23]: 4.48; for `COc1ccc(CN2CCC(CNC(=O)c3ccc4c(Cl)c5c(nc4c3)CCCC5)CC2)cc1` [Example 22, 9-chloro-N-((1-(4-methoxybenzyl)piperidin-4-yl)methyl)-5,6,7,8-tetrahydroacridine-3-carboxamide]: 4.56. The same measure for `O=C(NCc1ccc(CN2CCCC2)cc1)c1ccc2c(Cl)c3c(nc2c1)CCCC3` [Example 21, 9-chloro-N-(4-(pyrrolidin-1-ylmethyl)benzyl)-5,6,7,8-tetrahydroacridine-3-carboxamide]: 4.79; for `CN1CCCC1CCNC(=O)c1ccc2c(Cl)c3c(nc2c1)CCCC3` (stereo not drawn) [Example 17, 9-chloro-N-(2-(1-methylpyrrolidin-2-yl)ethyl)-5,6,7,8-tetrahydroacridino-3-carboxamide]: 4.86. In turn, `O=C(NCC(CN1CCCC1)C(O)c1ccccc1)c1ccc2c(Cl)c3c(nc2c1)CCCC3` (stereo not drawn) [Example 25, 9-chloro-N-(3-hydroxy-3-phenyl-2-pyrrolidin-1-ylmethylpropyl)-5,6,7,8-tetrahydroacridine-3-carboxamide] had a pIC50 of 4.23. The same measure for `O=C(Nc1cccc(CN2CCCC2)c1)c1ccc2c(Cl)c3c(nc2c1)CCCC3` [Example 19, 9-chloro-N-(3-(pyrrolidin-1-ylmethyl)phenyl)-5.6,7,8-tetrahydroacridine-3-carboxamide]: 5.09; for `O=C(NCc1cccc(CN2CCCC2)c1)c1ccc2c(Cl)c3c(nc2c1)CCCC3` [Example 18, 9-chloro-N-(3-(pyrrolidin-1-ylmethyl)benzyl)-5,6,7,8-tetrahydroacridine-3-carboxamide]: 4.74.
